How the values were obtained:
[1] = biological target: T1, SIK2 kinase (full length, Thermo Fisher) (Homo sapiens, UniProt Q9H0K1); experiment: Biochemical activities determination for SIK2 protein (TR-FRET); conditions: 80 uM ATP, 0.5 μM substrate
T1 construct: SIK2 kinase (full length, Thermo Fisher); purchased Thermo Fisher
Method in brief: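 Full-length SIK2 preincubated 60 min with 0–10 μM compound, then reacted 180 min at room temperature with 80 uM ATP and 0.5 μM biotinylated substrate (pH 7.5 Tris/MgCl2 buffer). Phosphorylation detected by TR-FRET (665/620 nm ratio, cryptate antibody/streptavidin-XL665) after overnight incubation; IC50 from four-parameter logistic fit.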

[2] = biological target: T2, SIK1 kinase (aa1-303, Thermo Fisher) (Homo sapiens, UniProt P57059); experiment: Biochemical activities determination for SIK1 protein (TR-FRET); conditions: 110 uM ATP, 0.5 μM STK1 substrate
T2 construct: SIK1 kinase (aa1-303, Thermo Fisher); purchased Thermo Fisher
Method in brief: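 TR-FRET kinase assay with SIK1 (aa1-303), 110 uM ATP, 0.5 μM STK1 substrate and 0-10 μM compound in Tris pH 7.5 with MgCl2, EGTA, DTT, Triton X-100. Enzyme preincubated with compound 60 min, reaction 180 min at room temperature; 665/620 nm ratio after overnight detection; IC50 from four-parameter logistic fit.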

[3] = biological target: T3, SIK3 kinase (aa59-365, Thermo Fisher) (Homo sapiens, UniProt Q9Y2K2); experiment: Biochemical activities determination for SIK3 protein (TR-FRET); conditions: 125 uM ATP, 0.5 μM STK1 substrate
T3 construct: SIK3 kinase (aa59-365, Thermo Fisher); purchased Thermo Fisher
Method in brief: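 SIK3 (aa59-365) was preincubated with compound (0-10 μM) for 60 min at room temperature in Tris buffer pH 7.5. The reaction was then started with 125 uM ATP and 0.5 μM STK1 substrate and run 180 min at room temperature. Phospho-substrate was detected by HTRF (665/620 nm ratio), and IC50 came from a four-parameter logistic fit.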

T2 sequence (P57059 1-303): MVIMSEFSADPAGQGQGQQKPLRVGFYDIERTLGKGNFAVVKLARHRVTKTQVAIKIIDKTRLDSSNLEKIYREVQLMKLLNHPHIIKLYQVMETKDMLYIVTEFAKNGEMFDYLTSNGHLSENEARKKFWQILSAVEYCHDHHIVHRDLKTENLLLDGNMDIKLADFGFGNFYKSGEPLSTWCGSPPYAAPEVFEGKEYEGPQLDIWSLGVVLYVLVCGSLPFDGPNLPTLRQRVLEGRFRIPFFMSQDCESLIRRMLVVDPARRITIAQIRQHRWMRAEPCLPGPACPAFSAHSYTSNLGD
T3 sequence (Q9Y2K2 59-365): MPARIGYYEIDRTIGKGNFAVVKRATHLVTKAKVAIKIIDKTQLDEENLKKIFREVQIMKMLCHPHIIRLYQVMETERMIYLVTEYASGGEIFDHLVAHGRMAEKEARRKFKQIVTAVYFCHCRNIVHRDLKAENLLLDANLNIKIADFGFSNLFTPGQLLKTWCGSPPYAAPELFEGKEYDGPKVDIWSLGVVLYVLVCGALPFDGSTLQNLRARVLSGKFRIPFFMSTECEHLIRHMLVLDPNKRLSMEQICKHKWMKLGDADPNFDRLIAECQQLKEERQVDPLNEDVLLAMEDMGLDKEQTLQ
T1 sequence (Q9H0K1 whole entry): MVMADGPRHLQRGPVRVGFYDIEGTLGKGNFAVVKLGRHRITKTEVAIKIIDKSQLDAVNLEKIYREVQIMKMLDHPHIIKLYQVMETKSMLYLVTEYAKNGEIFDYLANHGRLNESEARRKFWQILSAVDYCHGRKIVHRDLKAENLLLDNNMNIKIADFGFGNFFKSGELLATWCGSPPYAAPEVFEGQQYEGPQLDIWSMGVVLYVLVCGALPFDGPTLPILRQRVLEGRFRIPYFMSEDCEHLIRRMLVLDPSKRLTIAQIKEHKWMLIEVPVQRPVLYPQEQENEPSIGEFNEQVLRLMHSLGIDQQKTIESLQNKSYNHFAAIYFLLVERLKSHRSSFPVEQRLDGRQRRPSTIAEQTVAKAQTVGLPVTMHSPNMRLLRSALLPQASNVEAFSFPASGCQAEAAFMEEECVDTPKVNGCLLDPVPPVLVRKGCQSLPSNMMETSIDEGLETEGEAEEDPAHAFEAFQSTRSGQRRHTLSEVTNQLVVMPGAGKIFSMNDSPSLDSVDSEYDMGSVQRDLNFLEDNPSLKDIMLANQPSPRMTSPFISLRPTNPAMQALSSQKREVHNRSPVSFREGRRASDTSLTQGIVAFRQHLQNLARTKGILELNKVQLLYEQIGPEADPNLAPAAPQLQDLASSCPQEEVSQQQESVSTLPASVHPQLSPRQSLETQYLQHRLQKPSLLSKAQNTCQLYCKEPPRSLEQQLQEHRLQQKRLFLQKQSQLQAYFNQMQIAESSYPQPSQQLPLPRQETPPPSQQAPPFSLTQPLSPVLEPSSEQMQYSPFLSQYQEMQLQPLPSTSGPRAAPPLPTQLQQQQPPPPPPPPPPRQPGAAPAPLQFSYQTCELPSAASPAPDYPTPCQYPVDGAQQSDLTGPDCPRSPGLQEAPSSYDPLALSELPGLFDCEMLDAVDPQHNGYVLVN

## COc1cc(-c2coc3cc(-c4ccc(C)nn4)ccc23)cc(OC(F)F)c1C(=O)NC1CC1 [Compound 133, N-cyclopropyl-2-(difluoromethoxy)-6-methoxy-4-(6-(6-methylpyridazin-3-yl)benzofuran-3-yl)benzamide]
[1]
  IC50: 199 nM
[2]
  IC50: > 10000 nM
[3]
  IC50: 199 nM

## COc1cc(-c2coc3cc(OCCN4CCCC4)ccc23)cc2c1C(=O)N(CC(F)(F)F)CC2 [Compound 59, 8-methoxy-6-(6-(2-(pyrrolidin-1-yl)ethoxy)benzofuran-3-yl)-2-(2,2,2-trifluoroethyl)-3,4-dihydroisoquinolin-1 (2H)-one]
[1]
  IC50: 77 nM
[2]
  IC50: > 10000 nM
[3]
  IC50: 348 nM

## COc1cc(-c2coc3cc(OCCN4CCCC4)ccc23)cc(OC(F)F)c1C(=O)N[C@H]1C[C@@H]1F [Compound 99, 2-(difluoromethoxy)-N-((1S,2S)-2-fluorocyclopropyl)-6-methoxy-4-(6-(2-(pyrrolidin-1-yl)ethoxy)benzofuran-3-yl)benzamide]
[1]
  IC50: 269 nM
[2]
  IC50: > 10000 nM
[3]
  IC50: 759 nM

## COc1cc(-c2coc3cc(OCCN4CC[C@H](F)C4)ccc23)cc(OC(F)F)c1C(=O)N[C@@H]1C[C@@H]1F [Compound 74, 2-(difluoromethoxy)-N-((1R,2S)-2-fluorocyclopropyl)-4-(6-(2-((S)-3-fluoropyrrolidin-1-yl)ethoxy)benzofuran-3-yl)-6-methoxybenzamide]
[1]
  IC50: 26 nM
[2]
  IC50: 1130 nM
[3]
  IC50: 34 nM

## COc1cc(-c2coc3cc(-c4cnn(C5CCOC5)c4)ccc23)cc2c1C(=O)N(CC(F)(F)F)CC2 (stereo not drawn) [Compound 49, 8-methoxy-6-(6-(1-(tetrahydrofuran-3-yl)-1H-pyrazol-4-yl)benzofuran-3-yl)-2-(2,2,2-trifluoroethyl)-3,4-dihydroisoquinolin-1 (2H)-one]
[1]
  IC50: 11 nM
[2]
  IC50: 337 nM
[3]
  IC50: 25 nM

## COc1cc(-c2coc3cc(-c4cn(C)cn4)ccc23)cc2c1C(=O)N(CC(F)(F)F)CC2 [Example 7, 8-methoxy-6-(6-(1-methyl-1H-imidazol-4-yl)benzofuran-3-yl)-2-(2,2,2-trifluoroethyl)-3,4-dihydroisoquinolin-1 (2H)-one]
[1]
  IC50: 14 nM
[2]
  IC50: 671 nM
[3]
  IC50: 60 nM

## COc1cc(-c2coc3cc(OCCN4CCC(F)(F)C4)ccc23)cc(OC(F)F)c1C(=O)N[C@@H]1C[C@@H]1F [Compound 87, 2-(difluoromethoxy)-4-(6-(2-(3,3-difluoropyrrolidin-1-yl)ethoxy)benzofuran-3-yl)-N-((1R,2S)-2-fluorocyclopropyl)-6-methoxybenzamide]
[1]
  IC50: 78 nM
[2]
  IC50: 1090 nM
[3]
  IC50: 22 nM

## COc1cc(-c2coc3cc(-c4cn(C)nc4C(F)(F)F)ccc23)cc2c1C(=O)N(CC(F)(F)F)CC2 [Compound 16, 8-methoxy-6-(6-(1-methyl-3-(trifluoromethyl)-1H-pyrazol-4-yl)benzofuran-3-yl)-2-(2,2,2-trifluoroethyl)-3,4-dihydroisoquinolin-1 (2H)-one]
[1]
  IC50: 3350 nM
[2]
  IC50: > 10000 nM
[3]
  IC50: 5840 nM

## CN(C)CCOc1cc(-c2coc3cc(OCCN4CCCC4)ccc23)cc(OC(F)F)c1C(=O)NC1CC1 [Compound 118, N-cyclopropyl-2-(difluoromethoxy)-6-(2-(dimethylamino)ethoxy)-4-(6-(2-(pyrrolidin-1-yl)ethoxy)benzofuran-3-yl)benzamide]
[1]
  IC50: 781 nM
[2]
  IC50: > 10000 nM
[3]
  IC50: 6310 nM

## COc1cc(-c2coc3cc(-c4cnn(C5CN(CCC#N)C5)c4)ccc23)cc2c1C(=O)N(CC(F)(F)F)CC2 [Compound 54, 3-(3-(4-(3-(8-methoxy-1-oxo-2-(2,2,2-trifluoroethyl)-1,2,3,4-tetrahydroisoquinolin-6-yl)benzofuran-6-yl)-1H-pyrazol-1-yl)azetidin-1-yl) propanenitrile]
[1]
  IC50: 6.9 nM
[2]
  IC50: 326 nM
[3]
  IC50: 19 nM

## O=C(NC1CC1)c1c(OC(F)F)cc(-c2coc3cc(OCCN4CCCC4)ccc23)cc1OC(F)F [Compound 123, N-cyclopropyl-2,6-bis(difluoromethoxy)-4-(6-(2-(pyrrolidin-1-yl)ethoxy)benzofuran-3-yl)benzamide]
[1]
  IC50: 114 nM
[2]
  IC50: 8000 nM
[3]
  IC50: 506 nM

## COc1cc(-c2coc3cc(-c4cnn(C)c4)ccc23)cc2c1C(=O)N(CC(F)(F)F)[C@@H](C)C2 [Compound 29A, (S)-8-methoxy-3-methyl-6-(6-(1-methyl-1H-pyrazol-4-yl)benzofuran-3-yl)-2-(2,2,2-trifluoroethyl)-3,4-dihydroisoquinolin-1 (2H)-one]
[1]
  IC50: 15 nM
[2]
  IC50: 216 nM
[3]
  IC50: 42 nM

## NC1CC(Oc2cc(-c3coc4cc(OCCN5CCCC5)ccc34)cc(OC(F)F)c2C(=O)NC2CC2)C1 (stereo not drawn) [Compound 109, 2-(3-aminocyclobutoxy)-N-cyclopropyl-6-(difluoromethoxy)-4-(6-(2-(pyrrolidin-1-yl)ethoxy)benzofuran-3-yl)benzamide]
[1]
  IC50: 329 nM
[2]
  IC50: > 10000 nM
[3]
  IC50: 2520 nM

## COc1cc(-c2coc3cc(-c4cnn(C5CN(C)C5)c4)ccc23)cc2c1C(=O)N(CC(F)(F)F)CC2 [Compound 53, 8-methoxy-6-(6-(1-(1-methylazetidin-3-yl)-1H-pyrazol-4-yl)benzofuran-3-yl)-2-(2,2,2-trifluoroethyl)-3,4-dihydroisoquinolin-1 (2H)-one]
[1]
  IC50: 2.8 nM
[2]
  IC50: 294 nM
[3]
  IC50: 19 nM

## Cn1cc(-c2ccc3c(-c4cc5c(c(OC(F)F)c4)C(=O)N(CC(N)=O)CC5)coc3c2)cn1 [Compound 24, 2-(8-(difluoromethoxy)-6-(6-(1-methyl-1H-pyrazol-4-yl)benzofuran-3-yl)-1-oxo-3,4-dihydroisoquinolin-2 (1H)-yl) acetamide]
[1]
  IC50: 281 nM
[2]
  IC50: 3340 nM
[3]
  IC50: 320 nM

## COc1cc(-c2coc3cc(-c4cnn(C)c4)ccc23)cc2c1C(=O)N(C1CC1)CC2 [Compound 27, 2-cyclopropyl-8-methoxy-6-(6-(1-methyl-1H-pyrazol-4-yl)benzofuran-3-yl)-3,4-dihydroisoquinolin-1 (2H)-one]
[1]
  IC50: 34 nM
[2]
  IC50: 1130 nM
[3]
  IC50: 72 nM

## NC1CCN(c2cccc3ccc(-c4coc5cc(OCCN6CCOCC6)ccc45)nc23)CC1 [Compound 134, 1-(2-(6-(2-morpholinoethoxy)benzofuran-3-yl)quinolin-8-yl) piperidin-4-amine]
[1]
  IC50: 66 nM
[2]
  IC50: 958 nM
[3]
  IC50: 156 nM

## CN1CCC(n2cc(-c3ccc4c(-c5cc6c(c(OC(F)F)c5)C(=O)N(CC#N)CC6)coc4c3)cn2)C1 (stereo not drawn) [Compound 56, 2-(8-(difluoromethoxy)-6-(6-(1-(1-methylpyrrolidin-3-yl)-1H-pyrazol-4-yl)benzofuran-3-yl)-1-oxo-3,4-dihydroisoquinolin-2 (1H)-yl) acetonitrile]
[1]
  IC50: 2.6 nM
[2]
  IC50: 315 nM
[3]
  IC50: 15 nM

## COc1cc(-c2coc3cc(-c4cnn(C)c4)ccc23)cc(OC(F)F)c1C(=O)N[C@@H]1C[C@@H]1F [Compound 26, 2-(difluoromethoxy)-N-((1R,2S)-2-fluorocyclopropyl)-6-methoxy-4-(6-(1-methyl-1H-pyrazol-4-yl)benzofuran-3-yl)benzamide]
[1]
  IC50: 3.4 nM
[2]
  IC50: 33 nM
[3]
  IC50: 5 nM

## COc1cc(-c2coc3cc(OCCN4CCCC[C@@H]4C)ccc23)cc(OC(F)F)c1C(=O)N[C@@H]1C[C@@H]1F [Compound 91, 2-(difluoromethoxy)-N-((1R,2S)-2-fluorocyclopropyl)-6-methoxy-4-(6-(2-((S)-2-methylpiperidin-1-yl)ethoxy)benzofuran-3-yl)benzamide]
[1]
  IC50: 31 nM
[2]
  IC50: 2500 nM
[3]
  IC50: 74 nM

## O=C1c2c(cc(-c3coc4cc(OCCN5CCCC5)ccc34)cc2OC(F)F)CCN1CC(F)(F)F [Compound 63, 8-(difluoromethoxy)-6-(6-(2-(pyrrolidin-1-yl)ethoxy)benzofuran-3-yl)-2-(2,2,2-trifluoroethyl)-3,4-dihydroisoquinolin-1 (2H)-one]
[1]
  IC50: 67 nM
[2]
  IC50: > 10000 nM
[3]
  IC50: 300 nM

## COc1cc(-c2coc3cc(OCCCN4CCCCC4)ccc23)cc(OC(F)F)c1C(=O)N[C@@H]1C[C@@H]1F [Compound 84, 2-(difluoromethoxy)-N-((1R,2S)-2-fluorocyclopropyl)-6-methoxy-4-(6-(3-(piperidin-1-yl)propoxy)benzofuran-3-yl)benzamide]
[1]
  IC50: 9 nM
[2]
  IC50: 559 nM
[3]
  IC50: 44 nM

## CN1CCC[C@@H]1COc1cc(-c2coc3cc(OCCN4CCCC4)ccc23)cc(OC(F)F)c1C(=O)NC1CC1 [Compound 107, (R)—N-cyclopropyl-2-(difluoromethoxy)-6-((1-methylpyrrolidin-2-yl)methoxy)-4-(6-(2-(pyrrolidin-1-yl)ethoxy)benzofuran-3-yl)benzamide]
[1]
  IC50: 5610 nM
[2]
  IC50: > 10000 nM
[3]
  IC50: > 10000 nM

Source: patent publication US20260085053A1, “BENZOFURAN DERIVATIVES AS SIK INHIBITORS AND THE USE THEREOF” (BEONE MEDICINES I GMBH, priority 2023, published 2026)
